How the values were obtained:
[1] = Particle size analysis (Lecotrac laser particle size analyser) pre and post nanomilling; type: physicochemical
Procedure: 2.5 g of compound of example 176 was weighed into a 10 ml centrifuge tube. 25 ml of 0.3 mm yttrium zirconium (YTZ) ceramic milling beads (Manufacturer: Tosob, Japan; Supplier: Glen Creston Ltd., batch no. 5280130030)”) was weighed into a 50 ml milling pot. 22.5 ml of aqueous 1.5% HPMC was measured with a measuring cylinder into a 100 ml beaker. This solution was homogenised for 3 seconds with an Ultra Turrax T25 homogeniser. Approximately 200 mg of the 2.5 g of the compound was added to the HPMC solution and homogenised at the lowest speed setting until the powder was wetted. This was repeated until all the compound had been added. The speed of the homogeniser was then increased to maximum and the suspension was homogenised for a further 3 minutes. This suspension was allowed to stand for 30 minutes in order to allow some of the foam to disperse. The suspension was then poured into the 50 ml pot containing the YTZ milling beads, stirring to release any trapped air. The lid to the pot was then fitted and the pot sealed with some Nesco film. This procedure was repeated for a second 50 ml nanomilling pot and both pots were placed on a Retsch mill and milled for a total of 8 hours.
The milling pots were removed from the Retsch mill and left to cool and for the foam to disperse overnight. In the morning the suspension and bead mixture was passed through a 200μ, 40 mm diameter screen. The contents from each 50 ml pot was washed with aqueous 1.5% HPMC: 10% of the original suspension volume (i.e. 2.5 ml). The suspension from the 2 pots was combined to make 1 batch. The suspension obtained from the method above was named the concentrate.
A particle size analysis was carried out on the Lecotrac laser particle size analyser. The results are shown in Table B along with the results from the starting material for comparison:
Compounds of Examples 19, 34, 194, 217, 228, 247 were nanomilled on a 1 g scale using the process described above and the particle size analysed pre and post nanomilling.

[2] = molecular target: human cannabinoid CB2 receptor (Homo sapiens, UniProt P34972); experiment: Cannabinoid CB2 receptor agonist activity (yeast reporter assay, FDGlu fluorescence); type: cell-based; details: for EC50: EC50 value at the cloned human cannabinoid CB2 receptor; for Emax: read-out: efficacy value (Emax relative to HU210) at the cloned human cannabinoid CB2 receptor
Summary of the method: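 S. cerevisiae MMY23 expressing human CB2 with a Gpa1/Gαi3 chimeric G-protein, grown 24 h at 30 °C with agonist (1% DMSO) in selective media containing 10 mM 3-aminotriazole and FDGlu, pH 7.0. Fluorescein fluorescence (485/535 nm) fitted by four-parameter curve; Emax and EMR relative to HU210.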

[3] = Table C, after nanomilling, 1 g scale
[4] = Table C, before nanomilling, 1 g scale
[5] = Table B, after 8 hours milling in aqueous 1.5% HPMC, 2.5 g per pot
[6] = Table B, starting material before nanomilling, Lecotrac laser particle size analyser

human cannabinoid CB2 receptor, sequence (P34972 whole entry): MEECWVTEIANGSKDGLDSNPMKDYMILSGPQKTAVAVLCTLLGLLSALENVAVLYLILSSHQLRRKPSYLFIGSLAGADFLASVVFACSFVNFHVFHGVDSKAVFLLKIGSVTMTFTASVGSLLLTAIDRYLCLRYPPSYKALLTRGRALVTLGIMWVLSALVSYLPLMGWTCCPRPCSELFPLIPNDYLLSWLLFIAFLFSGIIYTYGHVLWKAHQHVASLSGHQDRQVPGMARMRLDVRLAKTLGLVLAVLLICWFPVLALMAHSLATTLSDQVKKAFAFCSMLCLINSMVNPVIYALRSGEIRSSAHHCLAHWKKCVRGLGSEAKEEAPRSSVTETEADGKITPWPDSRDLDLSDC

Compound	EC50 [2]	Emax [2]	other results
O=C(NCC1CCCCC1)c1cnc(Nc2cccc(F)c2)nc1C(F)(F)F [Example 19, 2-(3-Fluorophenylamino)-4-trifluoromethylpyrimidine-5-carboxylic acid cyclohexylmethyl-amide]	20 to 300 nM	> 50%	Post-nanomilling 50% percentile [1, 3]: 0.40 μ; Post-nanomilling 95% percentile [1, 3]: 1.40 μ; Pre-nanomilling 50% percentile [1, 4]: 5.22 μ; Pre-nanomilling 95% percentile [1, 4]: 25.5 μ
O=C(NCC1CCOCC1)c1cnc(Nc2ccc(Cl)cc2Cl)nc1C(F)(F)F [Example 34, 2-(2,4-Dichlorophenylamino)-4-trifluoromethylpyrimidine-5-carboxylic acid (tetrahydropyran-4-ylmethyl)-amide]	20 to 300 nM	> 50%	Post-nanomilling 50% percentile [1, 3]: 0.18 μ; Post-nanomilling 95% percentile [1, 3]: 0.56 μ; Pre-nanomilling 50% percentile [1, 4]: 10.46 μ; Pre-nanomilling 95% percentile [1, 4]: 32.7 μ
N#Cc1ccc(Nc2ncc(C(=O)NCC3CCCC3)c(C(F)(F)F)n2)cc1 [Example 176, 2-(4-Cyanophenylamino)-4-trifluoromethyl-pyrimidine-5-carboxylic acid cyclopentylmethyl-amide]	20 to 300 nM	> 50%	Post-nanomilling 50% percentile [1, 5]: 0.33 μ; Post-nanomilling 95% percentile [1, 5]: 1.78 μ; Pre-nanomilling 50% percentile [1, 6]: 13.15 μ; Pre-nanomilling 95% percentile [1, 6]: 68.7 μ
O=C(NCC1CCC1)c1cnc(Nc2ccc(F)c(Cl)c2)nc1C(F)(F)F [Example 194, 2-(3-Chloro-4-fluorophenylamino)-4-trifluoromethyl-pyrimidine-5-carboxylic acid cyclobutylmethyl-amide]	20 to 300 nM	> 50%	Post-nanomilling 50% percentile [1, 3]: 0.56 μ; Post-nanomilling 95% percentile [1, 3]: 1.97 μ; Pre-nanomilling 50% percentile [1, 4]: 6.78 μ; Pre-nanomilling 95% percentile [1, 4]: 33.7 μ
N#Cc1ccc(Nc2ncc(C(=O)NCC3CCOCC3)c(C(F)(F)F)n2)cc1Cl [Example 217, 2-(4-Cyano-3-chloro-phenylamino)-4-trifluoromethyl-pyrimidine-5-carboxylic acid (tetrahydro-pyran-4-ylmethyl)-amide]	20 to 300 nM	> 50%	Post-nanomilling 50% percentile [1, 3]: 0.34 μ; Post-nanomilling 95% percentile [1, 3]: 1.30 μ; Pre-nanomilling 50% percentile [1, 4]: 5.70 μ; Pre-nanomilling 95% percentile [1, 4]: 34.9 μ
O=C(NCC1CCC1)c1cnc(Nc2ccc(Cl)cc2F)nc1C(F)(F)F [Example 228, 2-(2-Fluoro-4-chloro-phenylamino)-4-trifluoromethyl-pyrimidine-5-carboxylic acid cyclobutylmethyl-amide]	20 to 300 nM	> 50%	Post-nanomilling 50% percentile [1, 3]: 0.44 μ; Post-nanomilling 95% percentile [1, 3]: 1.69 μ; Pre-nanomilling 50% percentile [1, 4]: 4.65 μ; Pre-nanomilling 95% percentile [1, 4]: 47.1 μ
O=C(NCC1CCCC1)c1cnc(Nc2ccc(F)c(Cl)c2)nc1C(F)(F)F [Example 247, 2-(3-Chloro-4-fluoro-phenylamino)-4-trifluoromethyl-pyrimidine-5-carboxylic acid cyclopentylmethyl-amide]	20 to 300 nM	> 50%	Post-nanomilling 50% percentile [1, 3]: 0.64 μ; Post-nanomilling 95% percentile [1, 3]: 2.53 μ; Pre-nanomilling 50% percentile [1, 4]: 13.2 μ; Pre-nanomilling 95% percentile [1, 4]: 68.7 μ
O=C(NCc1ccnc(F)c1)c1cnc(Nc2cccc(Cl)c2Cl)nc1C(F)(F)F [Example 359, 2-(2,3-Dichloro-phenylamino)-4-trifluoromethyl-pyrimidine-5-carboxylic acid (2-fluoro-pyridin-4-ylmethyl)-amide]	20 to 300 nM		
O=C(NCc1ccnc(F)c1)c1cnc(Nc2ccc(Cl)cc2Cl)nc1C(F)(F)F [Example 360, 2-(2,4-Dichloro-phenylamino)-4-trifluoromethyl-pyrimidine-5-carboxylic acid (2-fluoro-pyridin-4-ylmethyl)-amide]	20 to 300 nM		
N#Cc1cccc(Nc2ncc(C(=O)NCc3ccccc3)c(C(F)(F)F)n2)c1 [Example 362, 2-(3-Cyano-phenylamino)-4-trifluoromethyl-pyrimidine-5-carboxylic acid benzylamide]	20 to 300 nM	> 50%	
O=C(NCc1ccccc1)c1cnc(Nc2c(Cl)cccc2Cl)nc1C(F)(F)F [Example 363, 2-(2,6-Dichloro-phenylamino)-4-trifluoromethyl-pyrimidine-5-carboxylic acid benzylamide]	20 to 300 nM		
O=C(NCc1ccc(F)cc1)c1cnc(Nc2cccc(Cl)c2Cl)nc1C(F)(F)F [Example 364, 2-(2,3-Dichloro-phenylamino)-4-trifluoromethyl-pyrimidine-5-carboxylic acid 4-fluoro-benzylamide]	20 to 300 nM		
O=C(NCc1ccc(F)cc1)c1cnc(Nc2ccc(Cl)cc2Cl)nc1C(F)(F)F [Example 365, 2-(2,4-Dichloro-phenylamino)-4-trifluoromethyl-pyrimidine-5-carboxylic acid 4-fluoro-benzylamide]	20 to 300 nM		
O=C(NCc1ccc(F)cc1)c1cnc(Nc2cc(Cl)ccc2Cl)nc1C(F)(F)F [Example 366, 2-(2,5-Dichloro-phenylamino)-4-trifluoromethyl-pyrimidine-5-carboxylic acid 4-fluoro-benzylamide]	20 to 300 nM		
O=C(NCc1ccc(F)cc1)c1cnc(Nc2ccc(Cl)c(Cl)c2)nc1C(F)(F)F [Example 367, 2-(3,4-Dichloro-phenylamino)-4-trifluoromethyl-pyrimidine-5-carboxylic acid 4-fluoro-benzylamide]	20 to 300 nM		
O=C(NCc1ccc(F)cc1F)c1cnc(Nc2cccc(Cl)c2)nc1C(F)(F)F [Example 368, 2-(3-Chloro-phenylamino)-4-trifluoromethyl-pyrimidine-5-carboxylic acid 2,4-difluoro-benzylamide]	20 to 300 nM		
O=C(NCc1ccc(F)cc1)c1cnc(Nc2ccc(C(F)(F)F)c(F)c2)nc1C(F)(F)F [Example 369, 2-(3-Fluoro-4-trifluoromethyl-phenylamino)-4-trifluoromethyl-pyrimidine-5-carboxylic acid 4-fluoro-benzylamide]	20 to 300 nM		
CC(C)c1cc(Nc2cccc(C(F)(F)F)c2)ncc1C(=O)NCc1ccc(F)cc1 [Example 393, N-(4-Fluoro-benzyl)-4-isopropyl-6-(3-trifluoromethyl-phenylamino)-nicotinamide]		> 50%	
Cc1cccc(Nc2cc(C(C)C)c(C(=O)NCc3ccc(F)cc3)cn2)c1C#N [Example 395, 6-(2-Cyano-3-methyl-phenylamino)-N-(4-fluoro-benzyl)-4-isopropyl-nicotinamide]		> 50%	
O=C(NCc1ccncc1)c1ccc(Nc2cccc(Cl)c2)nc1C(F)(F)F [Example 457, 6-(3-Chloro-phenylamino)-N-(pyridin-4-ylmethyl)-2-trifluoromethyl-nicotinamide]		> 50%	
O=C(NCC1CCOCC1)c1ccc(Nc2cccc(Cl)c2)nc1C(F)(F)F [Example 662, 6-(3-Chloro-phenylamino)-N-(tetrahydro-pyran-4-ylmethyl)-2-trifluoromethyl-nicotinamide]		> 50%	
CC(C)c1cc(Nc2cc(Cl)ccc2C#N)ncc1C(=O)NCC1CCOCC1 [Example 679, 6-(5-Chloro-2-cyano-phenylamino)-4-isopropyl-N-(tetrahydro-pyran-4-ylmethyl)-nicotinamide]		< 30%	
CC(C)c1cc(Nc2cccc(Cl)c2)ncc1C(=O)NCC1CCS(=O)(=O)C1 (stereo not drawn) [Example 681, 6-(3-Chloro-phenylamino)-N-(1,1-dioxo-tetrahydro-1l^6-thiophen-3-ylmethyl)-4-isopropyl-nicotinamide]		> 50%	
CC(C)c1cc(Nc2cccc(OC(F)(F)F)c2)ncc1C(=O)NCC1CCC1 [Example 682, N-Cyclobutylmethyl-4 isopropyl-6-(3-trifluoromethoxy-phenylamino)-nicotinamide]		> 50%	
CC(C)c1cc(Nc2ccc(C#N)cc2F)ncc1C(=O)NCC1CCCC1 [Example 751, 6-(4-Cyano-2-fluoro-phenylamino)-N-cyclopentylmethyl-4-isopropyl-nicotinamide]		> 50%	
CC(C)c1cc(Nc2ccc(Br)c(C(F)(F)F)c2)ncc1C(=O)NCC1CCOCC1 [Example 752, 6-(4-Bromo-3-trifluoromethyl-phenylamino)-4-isopropyl-N-(tetrahydropyran-4-ylmethyl)-nicotinamide]	300 to 1000 nM	> 50%	
